target: T1, MC4R (Homo sapiens, UniProt P32245); assay: MCR agonistic activity (luciferase assay / cAMP accumulation assay) on MC4R; assay type: cell-based; conditions: HEK cell lines expressing MC4R; method A (CRE-luciferase) or B (cAMP accumulation), not said which; read-out: EC50 value, agonistic activity to MC4R (range per group of Examples)
T1 construct: expressed in transfected cells; host or cells: HEK (Human Embryonic Kidney) permanent expression cell line HEK MC4R-Luc, co-expressing CRE-luciferase
T1 sequence (P32245 whole entry, species assumed): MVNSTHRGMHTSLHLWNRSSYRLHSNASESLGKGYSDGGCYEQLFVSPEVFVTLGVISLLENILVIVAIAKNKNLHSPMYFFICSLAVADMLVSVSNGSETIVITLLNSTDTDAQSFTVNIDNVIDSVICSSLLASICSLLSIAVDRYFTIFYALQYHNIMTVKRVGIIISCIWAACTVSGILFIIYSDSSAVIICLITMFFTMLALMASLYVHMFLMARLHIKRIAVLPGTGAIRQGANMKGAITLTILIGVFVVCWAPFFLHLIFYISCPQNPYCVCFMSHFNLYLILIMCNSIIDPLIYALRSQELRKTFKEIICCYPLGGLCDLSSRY
Procedure: Physiological activity of the compounds of the present invention was assessed by measuring agonistic activity as well as binding activity for melanocortin receptors (MCR) according to methods A and B explained as follows.
As one of the methods to measure MCR agonistic activity of the compound according to the present invention, the expression level of a marker gene (for example, luciferase) which increases proportionally according to the increase of cAMP content in the cell, was measured.
First, permanent expression HEK (Human Embryonic Kidney) cell lines (HEK MC1R-Luc, MC3R-Luc, MC4R-Luc or MC5R-Luc) expressing the MCR gene of each subtype together with luciferase gene (CRE-LUC) under the control of CRE (cAMP Response Element) were constructed. The above cell lines were incubated in an incubator with 6% CO2 atmosphere at 37° C. using selection medium, DMEM(Dulbecco's Modified Eagles Medium) containing 10% heat-inactivated fetal bovine serum (Gibco/BRL), 100 unit/ml, penicillin (Gibco/BRL), 100 unit/ml streptomycin (Gibco/BRL), and 200 μg/ml geneticin (G418) (Gibco/BRL). When the cell covered 70% of total surface of the culture dish with 100 mm diameter, the culture dish was rinsed one time with 10 ml Phosphate Buffered Saline(PBS) free of Ca^++ and Mg^++, and then 3 ml PBS solution containing 0.05% trypsin and 0.53 mM EDTA was added thereto. After the trypsin/EDTA solution was removed, the cell lines were incubated in an thermostatic incubator for 1 minute at 37° C., and resuspended in 10 ml selection medium and centrifuged for 5 minutes at 1500 rpm. The supernatant was discarded and the settled cells were resuspended in 5 ml selection medium free of Phenol Red. The resulting cell-suspension was plated onto each well of 96-well culture plates for Luminometer(Costar) with a concentration of 5×10^4 cell in 100 μl culture medium for each well and incubated in the incubator with 6% CO2 atmosphere at 37° C. for 18 hours. With MCR agonists (Example compounds) diluted stepwise using the above culture medium, the cells were treated under the condition of the final DMSO concentration not exceeding 1%, and incubated for 5 hours in the atmosphere of 6% CO2 at 37° C. Then, 50 μl Bright-Glo (Promega) was added to each well. After allowing the treated cells to be at room temperature for 15 minutes, luminescence was measured for each well by using luminometer (Victor). The level of luminescence induced by the stepwise-diluted agonist was converted to relative % value to those by the treatment of 10 nM NDP-MSH. The EC50 indicates the concentration of each agonist for inducing 50% of maximal luminescence by each agonist and this value was measured by a statistical software (Prizm).
B. cAMP Accumulation Assay
As another method to measure MCR agonistic activity of the compound according to the present invention, an increase of cAMP amount in the cell was measured.
First, permanent expression HEK (Human Embryonic Kidney) cell lines (HEK MC1R-Luc, MC3R-Luc, MC4R-Luc or MCSR-Luc) expressing the MCR gene of each subtype were plated onto each well of 24-well culture plates for Luminometer(Costar) with a concentration of 2×10^5 cell in 1 ml culture medium for each well, and then incubated in an incubator with 6% CO2 atmosphere at 37° C. for 24 hours. The medium was removed from each well followed by rinsing with 0.5 ml cold DMEM one time. With MCR agonists (Example compounds) diluted stepwise using 200 μl DMEM including 500 μM IBMX (isobutylmethylxanthine), the cells were treated under the condition of the final DMSO concentration not exceeding 1%, and incubated for 30 minutes in the atmosphere of 6% CO2 at 37° C. Then, the cAMP amount in each cell was measured using Amersham cAMP assay Kit (TRK432).
More specifically, 14.4 μl of 6M PCA (60%) was added to each well, and allowed to be in ice for 10 minutes, and 200 μl sample was taken from each well and transferred to microcentrifuge tube. […]

Structure (SMILES) | EC50 [nM]
CCN1CCN(C(=O)[C@@H]2C[C@H](N(C(C)=O)C3CCC(F)(F)CC3)CN2C(=O)[C@@H]2CN(C(C)(C)C)C[C@H]2c2ccc(Cl)cc2)CC1 [Example 28, N-{(3S,5S)-1-{[(3S,4R)-1-tert-butyl-4-(4-chlorophenyl)pyrrolidin-3-yl]carbonyl}5-[(4-ethylpiperazin-1-yl)carbonyl]pyrrolidin-3-yl}-N-(4,4-difluorocyclohexyl)acetamide] | 100 to 1000
CC(=O)N(C1CCC(F)(F)CC1)[C@H]1C[C@@H](C(=O)N2CCN(C(C)C)CC2)N(C(=O)[C@@H]2CN(C(C)(C)C)C[C@H]2c2ccc(Cl)cc2)C1 [Example 29, N-{(3S,5S)-1-{[(3S,4R)-1-tert-butyl-4-(4-chlorophenyl)pyrrolidin-3-yl]carbonyl}5-[(4-isopropylpiperazin-1-yl)carbonyl]pyrrolidin-3-yl}-N-(4,4-difluorocyclohexyl)acetamide] | 100 to 1000
CN1CCN(C(=O)[C@@H]2C[C@H](N(C(=O)[C@@H]3CCCO3)C3CCC(F)(F)CC3)CN2C(=O)[C@@H]2CN(C(C)(C)C)C[C@H]2c2ccc(Cl)cc2)CC1 [Example 31, (2S)-N-{(3S,5S)-1-{[(3S,4R)-1-tert-butyl-4-(4-chlorophenyl)pyrrolidin-3-yl]carbonyl}-5-[(4-methylpiperazin-1-yl)carbonyl]pyrrolidin-3-yl}-N-(4,4-difluorocyclohexyl)tetrahydrofuran-2-carboxamide] | 10 to 100
CN1CCN(C(=O)[C@H]2C[C@H](N(C(=O)C(C)(C)C)[C@H]3CC[C@@H](C)CC3)CN2C(=O)[C@@H]2CN(C(C)(C)C)C[C@H]2c2ccc(F)cc2F)CC1 [Example 33, N-{(3S,5R)-1-{[(3S,4R)-1-tert-butyl-4-(2,4-difluorophenyl)pyrrolidin-3-yl]carbonyl}-5-[(4-methylpiperazin-1-yl)carbonyl]pyrrolidin-3-yl}-2,2-dimethyl-N-(cis-4-methylcyclohexyl)propanamide] | 10 to 100
CN1CCN(C(=O)[C@H]2C[C@H](N(C(=O)[C@@H]3CCCO3)C3CCC(C)(C)CC3)CN2C(=O)[C@@H]2CN(C(C)(C)C)C[C@H]2c2ccc(Cl)cc2)CC1 [Example 34, (2S)-N-{(3S,5R)-1-{[(3S,4R)-1-tert-butyl-4-(4-chlorophenyl)pyrrolidin-3-yl]carbonyl}-5-[(4-methylpiperazin-1-yl)carbonyl]pyrrolidin-3-yl}-N-(4,4-dimethylcyclohexyl)tetrahydrofuran-2-carboxamide] | 0.1 to 10
CC(=O)N([C@H]1C[C@H](C(=O)N2CCN(C)CC2)N(C(=O)[C@@H]2CN(C(C)(C)C)C[C@H]2c2ccc(F)cc2F)C1)[C@H]1CC[C@@H](C)CC1 [Example 38, N-{(3S,5R)-1-{[(3S,4R)-1-tert-butyl-4-(2,4-difluorophenyl)pyrrolidin-3-yl]carbonyl}-5-[(4-methylpiperazin-1-yl)carbonyl]pyrrolidin-3-yl}-N-(cis-4-methylcyclohexyl)acetamide] | 0.1 to 10
CC(=O)N([C@H]1C[C@H](C(=O)N2CCN(C(C)C)CC2)N(C(=O)[C@@H]2CN(C(C)(C)C)C[C@H]2c2ccc(Cl)cc2)C1)[C@H]1CC[C@@H](C)CC1 [Example 39, N-{(3S,5R)-1-{[(3S,4R)-1-tert-butyl-4-(4-chlorophenyl)pyrrolidin-3-yl]carbonyl}-5-[(4-isopropylpiperazin-1-yl)carbonyl]pyrrolidin-3-yl}-N-(cis-4-methylcyclohexyl)acetamide] | 0.1 to 10

More lines, now with the values ahead:

EC50 [nM] | Structure (SMILES)
0.1 to 10 | CC(C)N1CCN(C(=O)[C@@H]2C[C@H](N(C(=O)[C@@H]3CCCO3)[C@H]3CC[C@@H](C)CC3)CN2C(=O)[C@@H]2CN(C(C)(C)C)C[C@H]2c2ccc(Cl)cc2)CC1 [Example 23, (2S)-N-{(3S,5S)-1-{[(3S,4R)-1-tert-butyl-4-(4-chlorophenyl)pyrrolidin-3-yl]carbonyl}-5-[(4-isopropylpiperazin-1-yl)carbonyl]pyrrolidin-3-yl}-N-(cis-4-methylcyclohexyl)tetrahydrofuran-2-carboxamide]
0.1 to 10 | CN1CCN(C(=O)[C@@H]2C[C@H](N(C(=O)c3ccoc3)[C@H]3CC[C@@H](C)CC3)CN2C(=O)[C@@H]2CN(C(C)(C)C)C[C@H]2c2ccc(F)cc2F)CC1 [Example 24, N-{(3S,5S)-1-{[(3S,4R)-1-tert-butyl-4-(2,4-difluorophenyl)pyrrolidin-3-yl]carbonyl}-5-[(4-methylpiperazin-1-yl)carbonyl]pyrrolidin-3-yl}-N-(cis-4-methylcyclohexyl)-3-furamide]
0.1 to 10 | CN1CCN(C(=O)[C@@H]2C[C@H](N(C(=O)C(C)(C)C)C3CCC(F)(F)CC3)CN2C(=O)[C@@H]2CN(C(C)(C)C)C[C@H]2c2ccc(Cl)cc2)CC1 [Example 26, N-{(3S,5S)-1-{[(3S,4R)-1-tert-butyl-4-(4-chlorophenyl)pyrrolidine-3-yl]carbonyl}-5-[(4-methylpiperazin-1-yl)carbonyl]pyrrolidin-3-yl}-N-(4,4-difluorocyclohexyl)-2,2-dimethylpropanamide]
0.1 to 10 | CN1CCN(C(=O)[C@@H]2C[C@H](N(C(=O)C(C)(C)C)C3CCC(F)(F)CC3)CN2C(=O)[C@@H]2CN(C(C)(C)C)C[C@H]2c2ccc(F)cc2F)CC1 [Example 30, N-{(3S,5S)-1-{[(3S,4R)-1-tert-butyl-4-(2,4-difluorophenyl)pyrrolidin-3-yl]carbonyl}-5-[(4-methylpiperazin-1-yl)carbonyl]pyrrolidin-3-yl}-N-(4,4-difluorocyclohexyl)-2,2-dimethylpropanamide]
0.1 to 10 | CN1CCN(C(=O)[C@H]2C[C@H](N(C(=O)[C@@H]3CCCO3)C3CCC(C)(C)CC3)CN2C(=O)[C@@H]2CN(C(C)(C)C)C[C@H]2c2ccc(F)cc2F)CC1 [Example 32, (2S)-N-{(3S,5R)-1-{[(3S,4R)-1-tert-butyl-4-(2,4-difluorophenyl)pyrrolidin-3-yl]carbonyl}-5-[(4-methylpiperazin-1-yl)carbonyl]pyrrolidin-3-yl}-N-(4,4-dimethylcyclohexyl)tetrahydrofuran-2-carboxamide]
0.1 to 10 | CN1CCN(C(=O)[C@H]2C[C@H](N(C(=O)C(C)(C)CO)[C@H]3CC[C@@H](C)CC3)CN2C(=O)[C@@H]2CN(C(C)(C)C)C[C@H]2c2ccc(Cl)cc2)CC1 [Example 36, N-{(3S,5R)-1-{[(3S,4R)-1-tert-butyl-4-(4-chlorophenyl)pyrrolidin-3-yl]carbonyl}-5-[(4-methylpiperazin-1-yl)carbonyl]pyrrolidin-3-yl}-3-hydroxy-2,2-dimethyl-N-(cis-4-methylcyclohexyl)propanamide]
0.1 to 10 | CC(=O)N([C@H]1C[C@H](C(=O)N2CCN(C)CC2)N(C(=O)[C@@H]2CN(C(C)(C)C)C[C@H]2c2ccc(Cl)cc2)C1)[C@H]1CC[C@@H](C)CC1 [Example 37, N-{(3S,5R)-1-{[(3S,4R)-1-tert-butyl-4-(4-chlorophenyl)pyrrolidin-3-yl]carbonyl}-5-[(4-methylpiperazin-1-yl)carbonyl]pyrrolidin-3-yl}-N-(cis-4-methylcyclohexyl)acetamide]

same assay, conditions: specific activities of representative compounds; HEK cell lines expressing MC4R; method A or B, not said which; read-out: EC50

Structure (SMILES) | EC50 [nM]
CN1CCN(C(=O)[C@@H]2C[C@H](N(C(=O)C(C)(C)C)C3CCC(F)(F)CC3)CN2C(=O)[C@@H]2CN(C(C)(C)C)C[C@H]2c2ccc(Cl)cc2)CC1 [Example 26, N-{(3S,5S)-1-{[(3S,4R)-1-tert-butyl-4-(4-chlorophenyl)pyrrolidine-3-yl]carbonyl}-5-[(4-methylpiperazin-1-yl)carbonyl]pyrrolidin-3-yl}-N-(4,4-difluorocyclohexyl)-2,2-dimethylpropanamide] | 6
CN1CCN(C(=O)[C@H]2C[C@H](N(C(=O)[C@@H]3CCCO3)C3CCC(C)(C)CC3)CN2C(=O)[C@@H]2CN(C(C)(C)C)C[C@H]2c2ccc(F)cc2F)CC1 [Example 32, (2S)-N-{(3S,5R)-1-{[(3S,4R)-1-tert-butyl-4-(2,4-difluorophenyl)pyrrolidin-3-yl]carbonyl}-5-[(4-methylpiperazin-1-yl)carbonyl]pyrrolidin-3-yl}-N-(4,4-dimethylcyclohexyl)tetrahydrofuran-2-carboxamide] | 4

From patent US8183243B2, “Melanocortin receptor agonists” (LG Life Sciences Ltd., priority 2008, dated 2012)
